Source: PMC6001238, “Iterative Chemical Engineering of Vancomycin Leads to Novel Vancomycin Analogs With a High in Vitro Therapeutic Index” (Frontiers in Microbiology, 2018)
Converted amounts (≈) assume the structure as drawn.

How the values were obtained:
[1] = tested on: L1210, CEM and HeLa cell lines; assay: Cytostatic activity, average or summary over L1210, CEM and HeLa; type: cell-based; details: average of L1210, CEM and HeLa; read-out: Toxicity (IC50) Average
Outline: (§1)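 Suspensions (300,000–500,000 cells/mL) combined with equal volumes of diluted compound; 37°C; L1210 2 d / CEM 3 d / HeLa 4 d; counted by Coulter counter; IC50 vs untreated wells.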

S. aureus VRSA = assay: MIC, broth microdilution, vancomycin-resistant S. aureus (VRSA); type: cell-based, Staphylococcus aureus; details: for MIC: Staphylococcus aureus VRSA, read-out: MIC; for MIC-fold improvement vs. vancomycin: VRSA, ratio of MIC of vancomycin and MIC of analogue
Outline: (§2)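 Serial dilutions in broth, set up per CLSI guidance, gave the MIC. Where noted, test analogues or comparator antibiotics were combined with vancomycin at 10 μM final. Controls: ultrapure water, broth without inoculum.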

[2] = tested on: S. aureus VSSA (ATCC 6538); assay: MIC, broth microdilution, vancomycin-sensitive S. aureus (VSSA/MSSA, ATCC 6538); type: cell-based, Staphylococcus aureus; details: for MIC: Staphylococcus aureus VSSA, read-out: MIC; for MIC-fold improvement vs. vancomycin: VSSA, ratio of MIC of vancomycin and MIC of analogue
Outline: as §2

E. faecalis VRE 53 = assay: MIC, broth microdilution, vancomycin-resistant E. faecalis VRE 53 (VanA); type: cell-based, Enterococcus faecalis; details: for MIC: Enterococcus faecalis VRE 53 (vancomycin-resistant), read-out: MIC; for MIC-fold improvement vs. vancomycin: VRE 53, ratio of MIC of vancomycin and MIC of analogue
Outline: as §2

MRSA KS2 = assay: MIC, broth microdilution, MRSA KS2; type: cell-based, Staphylococcus aureus; details: for MIC-fold improvement vs. vancomycin: MRSA KS2, ratio of MIC of vancomycin and MIC of analogue; for MIC: Staphylococcus aureus MRSA KS2, read-out: MIC
Outline: as §2

[3] = tested on: human T-lymphocyte (CEM) cells; assay: Cytostatic activity, CEM cell proliferation; type: cell-based; details: mean ± SD of three experiments; highest concentration tested 250 µM; 3 days; read-out: Toxicity (IC50) CEM
Outline: as §1

E. faecalis VRE 29 = assay: MIC, broth microdilution, vancomycin-resistant E. faecalis VRE 29 (VanA); type: cell-based, Enterococcus faecalis; details: for MIC: Enterococcus faecalis VRE 29 (vancomycin-resistant), read-out: MIC; for MIC-fold improvement vs. vancomycin: VRE 29, ratio of MIC of vancomycin and MIC of analogue
Outline: as §2

MRSA KS6 = assay: MIC, broth microdilution, MRSA KS6; type: cell-based, Staphylococcus aureus; details: for MIC-fold improvement vs. vancomycin: MRSA KS6, ratio of MIC of vancomycin and MIC of analogue; for MIC: Staphylococcus aureus MRSA KS6, read-out: MIC
Outline: as §2

S. aureus VISA/HIP5827 = assay: MIC, broth microdilution, vancomycin-intermediate S. aureus VISA HIP5827; type: cell-based, Staphylococcus aureus; details: for MIC: Staphylococcus aureus VISA/HIP5827, read-out: MIC; for MIC-fold improvement vs. vancomycin: VISA/HIP5827, ratio of MIC of vancomycin and MIC of analogue
Outline: as §2

E. faecalis VRE 6 = assay: MIC, broth microdilution, vancomycin-resistant E. faecalis VRE 6 (VanA); type: cell-based, Enterococcus faecalis; details: for MIC: Enterococcus faecalis VRE 6 (vancomycin-resistant), read-out: MIC; for MIC-fold improvement vs. vancomycin: VRE 6, ratio of MIC of vancomycin and MIC of analogue
Outline: as §2

MRSA KS1 = assay: MIC, broth microdilution, MRSA KS1; type: cell-based, Staphylococcus aureus; details: for MIC-fold improvement vs. vancomycin: MRSA KS1, ratio of MIC of vancomycin and MIC of analogue; for MIC: Staphylococcus aureus MRSA KS1, read-out: MIC
Outline: as §2

E. faecalis VSE 1 = assay: MIC, broth microdilution, vancomycin-sensitive E. faecalis (VSE 1); type: cell-based, Enterococcus faecalis; details: for MIC: Enterococcus faecalis VSE 1 (vancomycin-sensitive), read-out: MIC; for MIC-fold improvement vs. vancomycin: VSE 1, ratio of MIC of vancomycin and MIC of analogue
Outline: as §2

MRSA KS89 = assay: MIC, broth microdilution, MRSA KS89; type: cell-based, Staphylococcus aureus; details: for MIC-fold improvement vs. vancomycin: MRSA KS8, ratio of MIC of vancomycin and MIC of analogue; for MIC: Staphylococcus aureus MRSA KS8, read-out: MIC
Outline: as §2

[4] = tested on: Murine leukemia (L1210) cells; assay: Cytostatic activity, L1210 cell proliferation; type: cell-based; details: mean ± SD of three experiments; highest concentration tested 250 µM; 2 days; read-out: Toxicity (IC50) L1210
Outline: as §1

E. faecalis VRE 37 = assay: MIC, broth microdilution, vancomycin-resistant E. faecalis VRE 37 (VanA); type: cell-based, Enterococcus faecalis; details: for MIC: Enterococcus faecalis VRE 37 (vancomycin-resistant), read-out: MIC
Outline: as §2

[5] = tested on: human cervix carcinoma (HeLa) cells; assay: Cytostatic activity, HeLa cell proliferation; type: cell-based; details: mean ± SD of three experiments; highest concentration tested 250 µM; 4 days; read-out: Toxicity (IC50) HeLa
Outline: as §1

Row | MIC (S. aureus VRSA) | MIC-fold improvement vs. vancomycin (S. aureus VRSA) | MIC [2] | MIC-fold improvement vs. vancomycin [2] | MIC (E. faecalis VRE 53) | MIC-fold improvement vs. vancomycin (E. faecalis VRE 53) | MIC-fold improvement vs. vancomycin (MRSA KS2) | MIC (MRSA KS2) | MIC (E. faecalis VRE 29) | MIC-fold improvement vs. vancomycin (E. faecalis VRE 29) | MIC-fold improvement vs. vancomycin (MRSA KS6) | MIC (MRSA KS6) | MIC (S. aureus VISA/HIP5827) | MIC-fold improvement vs. vancomycin (S. aureus VISA/HIP5827) | MIC (E. faecalis VRE 6) | MIC-fold improvement vs. vancomycin (E. faecalis VRE 6) | MIC-fold improvement vs. vancomycin (MRSA KS1) | MIC (MRSA KS1) | SMILES | IC50 [1] | IC50 [3] | other results
1 | 12.5 µM (≈ 20.4 µg/mL) | 8 | 0.78 µM (≈ 1.27 µg/mL) | 1 | 25 µM (≈ 40.7 µg/mL) | 16 | 2 | 0.39 µM (≈ 0.636 µg/mL) | 12.5 µM (≈ 20.4 µg/mL) | 32 | 2 | 0.39 µM (≈ 0.636 µg/mL) | 0.78 µM (≈ 1.27 µg/mL) | 8 | 12.5 µM (≈ 20.4 µg/mL) | 16 | 2 | 0.39 µM (≈ 0.636 µg/mL) | CN[C@H](CC(C)C)C(=O)N[C@H]1C(=O)N[C@@H](CC(N)=O)C(=O)N[C@H]2C(=O)N[C@H]3C(=O)N[C@H](C(=O)N[C@H](C(=O)NCC(=O)Nc4ccc(C)cc4Cl)c4cc(O)cc(O)c4-c4cc3ccc4O)[C@H](O)c3ccc(c(Cl)c3)Oc3cc2cc(c3O[C@@H]2O[C@H](CO)[C@@H](O)[C@H](O)[C@H]2O[C@H]2C[C@](C)(N)[C@H](O)[C@H](C)O2)Oc2ccc(cc2Cl)[C@H]1O [Vanc-2] | 219 µM | > 250 µM | MIC (E. faecalis VSE 1): 0.39 µM (≈ 0.636 µg/mL); MIC-fold improvement vs. vancomycin (E. faecalis VSE 1): 4; MIC-fold improvement vs. vancomycin (MRSA KS89): 2; MIC (MRSA KS89): 0.39 µM (≈ 0.636 µg/mL); IC50 [4]: > 250 µM; MIC (E. faecalis VRE 37): 25 µM (≈ 40.7 µg/mL); IC50 [5]: 158 ± 84 µM
2 | 6.25 µM (≈ 10.4 µg/mL) | 16 | 0.39 µM (≈ 0.648 µg/mL) | 2 | 25 µM (≈ 41.5 µg/mL) | 16 | 2 | 0.39 µM (≈ 0.648 µg/mL) | 12.5 µM (≈ 20.8 µg/mL) | 32 | 2 | 0.39 µM (≈ 0.648 µg/mL) | 0.39 µM (≈ 0.648 µg/mL) | 16 | 3.13 µM (≈ 5.2 µg/mL) | 64 | 2 | 0.39 µM (≈ 0.648 µg/mL) | CNC(CC(C)C)C(=O)NC1C(=O)NC(CC(N)=O)C(=O)NC2C(=O)NC3C(=O)NC(C(=O)NC(C(=O)NCCCNC(=O)c4ccc5ccccc5n4)c4cc(O)cc(O)c4-c4cc3ccc4O)C(O)c3ccc(c(Cl)c3)Oc3cc2cc(c3OC2OC(CO)C(O)C(O)C2OC2CC(C)(N)C(O)C(C)O2)Oc2ccc(cc2Cl)C1O (stereo not shown) [Vanc-27] | 185 µM | 229 ± 30 µM | MIC (E. faecalis VSE 1): 0.39 µM (≈ 0.648 µg/mL); MIC-fold improvement vs. vancomycin (E. faecalis VSE 1): 4; MIC-fold improvement vs. vancomycin (MRSA KS89): 1; MIC (MRSA KS89): 0.78 µM (≈ 1.3 µg/mL); IC50 [4]: > 250 µM; MIC (E. faecalis VRE 37): 12.5 µM (≈ 20.8 µg/mL); IC50 [5]: 76 ± 8 µM
3 | 25 µM (≈ 40.6 µg/mL) | 4 | 0.78 µM (≈ 1.27 µg/mL) | 1 | 25 µM (≈ 40.6 µg/mL) | 16 | 1 | 0.78 µM (≈ 1.27 µg/mL) | 25 µM (≈ 40.6 µg/mL) | 16 | 1 | 0.78 µM (≈ 1.27 µg/mL) | 1.56 µM (≈ 2.53 µg/mL) | 4 | 6.25 µM (≈ 10.1 µg/mL) | 32 | 1 | 0.78 µM (≈ 1.27 µg/mL) | CN[C@H](CC(C)C)C(=O)N[C@H]1C(=O)N[C@@H](CC(N)=O)C(=O)N[C@H]2C(=O)N[C@H]3C(=O)N[C@H](C(=O)N[C@H](C(=O)NCC(=O)Nc4c(C)cc(C)cc4C)c4cc(O)cc(O)c4-c4cc3ccc4O)[C@H](O)c3ccc(c(Cl)c3)Oc3cc2cc(c3O[C@@H]2O[C@H](CO)[C@@H](O)[C@H](O)[C@H]2O[C@H]2C[C@](C)(N)[C@H](O)[C@H](C)O2)Oc2ccc(cc2Cl)[C@H]1O [Vanc-9] | 191 µM | 240 ± 14 µM | MIC (E. faecalis VSE 1): 0.78 µM (≈ 1.27 µg/mL); MIC-fold improvement vs. vancomycin (E. faecalis VSE 1): 2; MIC-fold improvement vs. vancomycin (MRSA KS89): 1; MIC (MRSA KS89): 0.78 µM (≈ 1.27 µg/mL); IC50 [4]: > 250 µM; MIC (E. faecalis VRE 37): 25 µM (≈ 40.6 µg/mL); IC50 [5]: 83 ± 5 µM
4 | 1.56 µM (≈ 2.61 µg/mL) | 64 | 0.78 µM (≈ 1.31 µg/mL) | 1 | 6.25 µM (≈ 10.5 µg/mL) | 64 | 4 | 0.20 µM (≈ 0.335 µg/mL) | 6.25 µM (≈ 10.5 µg/mL) | 64 | 4 | 0.20 µM (≈ 0.335 µg/mL) | 0.78 µM (≈ 1.31 µg/mL) | 8 | 3.13 µM (≈ 5.24 µg/mL) | 64 | 1 | 0.78 µM (≈ 1.31 µg/mL) | CNC(CC(C)C)C(=O)NC1C(=O)NC(CC(N)=O)C(=O)NC2C(=O)NC3C(=O)NC(C(=O)NC(C(=O)NCC(=O)Nc4ccc(C#CC5CCCC5)cc4)c4cc(O)cc(O)c4-c4cc3ccc4O)C(O)c3ccc(c(Cl)c3)Oc3cc2cc(c3OC2OC(CO)C(O)C(O)C2OC2CC(C)(N)C(O)C(C)O2)Oc2ccc(cc2Cl)C1O (stereo not shown) [Vanc-69] | 90 µM | 29 µM | MIC (E. faecalis VSE 1): 0.78 µM (≈ 1.31 µg/mL); MIC-fold improvement vs. vancomycin (E. faecalis VSE 1): 2; MIC-fold improvement vs. vancomycin (MRSA KS89): 4; MIC (MRSA KS89): 0.20 µM (≈ 0.335 µg/mL); IC50 [4]: 185 ± 93 µM; MIC (E. faecalis VRE 37): 6.25 µM (≈ 10.5 µg/mL); MIC-fold improvement vs. vancomycin (E. faecalis VRE 37; VRE 37, ratio of MIC of vancomycin and MIC of analogue): 64; IC50 [5]: 55 ± 37 µM
5 | 1.56 µM (≈ 2.6 µg/mL) | 64 | 0.39 µM (≈ 0.65 µg/mL) | 2 | 25 µM (≈ 41.7 µg/mL) | 16 | 2 | 0.39 µM (≈ 0.65 µg/mL) | 12.5 µM (≈ 20.8 µg/mL) | 32 | 0.25 | 3.13 µM (≈ 5.22 µg/mL) | 1.56 µM (≈ 2.6 µg/mL) | 4 | 3.13 µM (≈ 5.22 µg/mL) | 64 | 2 | 0.39 µM (≈ 0.65 µg/mL) | CNC(CC(C)C)C(=O)NC1C(=O)NC(CC(N)=O)C(=O)NC2C(=O)NC3C(=O)NC(C(=O)NC(C(=O)NCCCNC(=O)c4cc5cc(F)ccc5[nH]4)c4cc(O)cc(O)c4-c4cc3ccc4O)C(O)c3ccc(c(Cl)c3)Oc3cc2cc(c3OC2OC(CO)C(O)C(O)C2OC2CC(C)(N)C(O)C(C)O2)Oc2ccc(cc2Cl)C1O (stereo not shown) [Vanc-45] | > 250 µM | > 250 µM | MIC (E. faecalis VSE 1): 0.39 µM (≈ 0.65 µg/mL); MIC-fold improvement vs. vancomycin (E. faecalis VSE 1): 4; MIC-fold improvement vs. vancomycin (MRSA KS89): 2; MIC (MRSA KS89): 0.39 µM (≈ 0.65 µg/mL); IC50 [4]: > 250 µM; MIC (E. faecalis VRE 37): 12.5 µM (≈ 20.8 µg/mL); IC50 [5]: > 250 µM
